The test system of assay [1] is primary human macrophages. Description: Cytokine synthesis in primary human macrophages stimulated with tenascin-C or its domains. Type of assay: cell-based. How it is done:
Human monocytes were isolated from peripheral blood (London Blood Bank) and macrophages were derived from monocytes after differentiation for 4 days with 100 ng/ml of M-CSF as previously described (Foxwell (1998)).
Immediately after isolation, RA membrane cells and macrophages were cultured at 1×10^5 cells/well in RPMI 1640 containing 10% (v/v) FBS and 100 U/ml (Units/ml) penicillin/streptomycin in 96-well tissue culture plates for 24 hours before stimulation. Synovial fibroblasts (used only at either passage number 2 or 3) were cultured at 1×10^4 cells/well in DMEM containing 10% (v/v) FBS and 100 U/ml penicillin/streptomycin in 96-well tissue culture plates for 24 hours before stimulation.
(§1) Cells were incubated for 24 hours at 37° C. with the indicated doses of tenascin-C and recombinant tenascin-C fragments (1.0 μM-1.0 nM). Cells were also stimulated where indicated with LPS (1 ng/ml for human macrophages, 10 ng/ml for human fibroblasts, RA membrane cells and HEKs, 100 ng/ml for MEFS and BMDMs and 10 ng/ml for HEKS), PAM3 (10 ng/ml for human macrophages, human fibroblasts, and HEKs, 100 ng/ml for MEFs and BMDMs), murine IL-1 (5 ng/ml for MEFS) and murine TNF-α (100 ng/ml for MEFS). Unless specifically stated otherwise rough LPS was used for in vitro studies.
Where stated, cells were pre-incubated with 10 μg/ml anti-CD14 antibody, 10 μg/ml IL1 receptor antagonist, 10 μg/ml anti-TLR2 antibody, 25 μg/ml anti-TLR4 antibody, 10 or 25 μg/ml isotype control antibody, 25 μg/ml polymyxin B, or 1 μg/ml msbB LPS, for 30 minutes at 37° C. before stimulation. Where stated, recombinant tenascin-C and FBG, and LPS were boiled for 15 minutes before addition to cells
(§2) Supernatants were subsequently examined for the presence of the cytokines TNF-α, IL-6, and IL-8 by enzyme-linked immunosorbent assay (ELISA) according to the manufacturer's instructions. Absorbance was read on a spectrophotometric ELISA plate reader (Labsystems Multiscan Biochromic, Vantaa, Finland) and analyzed using the Ascent software program (Thermo Labsystems, Altrincham, UK).

In assay [2] the test system is wild type mice. Description: Intra-articular injection of FBG in wild type mice, knee joint histology. In kind it is in vivo. On the procedure:
Wild type mice were anesthetized by intraperitoneal injection of 150 μl of Hypnorm diluted 1:10 in sterile water and then injected with 100 ng, 1 or 3 μg FBG in 10 μl of sterile PBS into the right knee joint using a sterile 33-gauge microcannula. Control mice received an injection of 10 μl PBS alone or were not injected.
On days 3 and 7, mice were euthanized, the knee joints were excised and fixed in 10% (volume/volume) buffered formalin, decalcified, with 10% EDTA and processed to paraffin.
Coronal tissue sections (4 μm) were cut at 7 depths throughout the joint; 80 μm apart and stained with hematoxylin and eosin or Safranin-O to assess joint pathology.
Inflammation (the influx of inflammatory cells into synovium (infiltrate) and the joint cavity (exudates), was graded using an arbitrary scale from 0 (no inflammation) to 3 (severe inflammation). Chondrocyte death was determined as the percentage of cartilage area containing empty lacunae in relation to the total area. Cartilage surface erosion was determined as the amount of cartilage lost in relation to the total cartilage area. Bone destruction was determined in 10 different areas of the total knee joint section. Destruction was graded on a scale of 0 (no damage) to 3 (complete loss of bone structure). Histological analysis was performed by an investigator who was blinded to the experimental groups. The mean score for each animal in an experimental group was calculated by averaging the histopathologic scores in at least 5 section depths per joint.

For assay [3], the system named is human dermal fibroblasts (HDF). The assay can be described thus: Cell adhesion to coated FBG, human dermal fibroblasts. The conditions noted are these: coated wells, 45 minutes, crystal violet. In kind it is cell-based. How it is done: (§3) (A) The sequence identified to bind integrin ≢vβ3 is shown in white (Yokoyama et al., 2000). Within this sequence two Arginines (shown in black) were identified to be citrullinated. (B) Wells of a 96 well plate were coated with different concentrations of FBG, citrullinated FBG (cFBG), FBG incubated in buffer without Calcium (FBG —Ca^2+), or FBG incubated without PAD (FBG -PAD). As a positive control wells were coated with Fibronectin (FN) (1 ug/ml), and coating with BSA (10 mg/ml) served as negative control. Plates were incubated with human dermal fibroblasts (HDF) or synovial fibroblasts from RA patients (RAF) for 45 minutes and adhesion was measured by determining absorbance of attached cells after staining with crystal violet (0.1%). Data are shown as the mean of at least four independent experiments+s.e.m., *=p<0.05, **=p<0.01.

The test system of assay [4] is TLR4. The assay can be described thus: Cytokine synthesis in embryonic fibroblasts or macrophages from TLR4 deficient mice. In kind it is cell-based. How it is done:
(§4) MEFs express high levels of mRNA of all 9 murine TLRs and are specifically and highly responsive to TLR ligand activation. […] MEFs were isolated from d13 embryos harvested from age-matched, pregnant female wild type, TLR2, TLR4 and null mice (as described in Todaro (1963)). Fibroblasts were cultured at 2×10^4 cells/well in DMEM containing 10% (v/v) FBS and 100 U/ml penicillin/streptomycin in 96-well tissue culture plates for 24 hours before stimulation.
(§5) BMDMs were derived by aspirating the femurs of age matched female wild type, TLR2 and TLR4 null mice as described in Butler (1999)) and culturing the cells for 7 days in DMEM, 20% (v/v) FBS, 10 ml/L (v/v) antibiotic-antimycotic solution PSA, 50 μM β-Mercaptoethanol and 10 ng/ml M-CSF. Macrophages were then cultured at 1×10^5 cells/well in DMEM, 20% (v/v) FBS, 10 ml/L (v/v) antibiotic-antimycotic solution PSA, 50 μM β-Mercaptoethanol in 96-well tissue culture plates for 24 hours before stimulation.
as §1, §2

Assay [5] concerns synovial fibroblasts from RA patients (RAF). The assay can be described thus: Cell adhesion to coated FBG, RA synovial fibroblasts. Type of assay: cell-based, human. The settings on record: coated wells, 45 minutes, crystal violet. On the procedure:
as §3

Assay [6] concerns TLR2. Description: Cytokine synthesis in embryonic fibroblasts or macrophages from TLR2 deficient mice. Type of assay: cell-based. On the procedure:
as §4, §5, §1, §2

[7] abbreviates: 1 μg FBG, 3 days after injection.

With “FBG: recombinant fibrinogen-like globe, 227 amino acid globular domain at the C terminal of tenascin-C”, in assay [1] (boiled 15 min, 25 μg/ml polymyxin B pre-incubation), the “heat and polymyxin B sensitivity of cytokine stimulation” value was “heat sensitive and unaffected by polymyxin B”. Moreover, the “production of TNF-α, IL-6 and IL-8” value in assay [1] (human macrophages, 24 h, 1.0 μM-1.0 nM) was “to an equal extent to full-length tenascin-C”. Further, the “inflammation and proteoglycan loss” value in assay [2] (100 ng FBG intra-articular) is “No inflammation or proteoglycan loss”. Further, the knee joint histology result in assay [2] (1 μg FBG intra-articular, 3 days) was “inflammatory cell infiltration (FIG. 6f), mild synovitis, pannus formation (FIG. 6g) and proteoglycan loss”; in assay [2] (3 μg FBG intra-articular) it was “A similar response”. For the same substance, the “histological quantification: cartilage surface erosion and bone damage” value in assay [2] (setting [7]) is recorded as “modest amount”. In assay [2] (setting [7]), the “histological quantification: cellular infiltrate, exudate and chondrocyte death” value is “high levels”. For the same substance, the joint inflammation entry in assay [2] (wild type mice, intra-articular, 100 ng, 1 or 3 μg) is “transient and dose dependent stimulation of joint inflammation”. The “adhesion of human dermal fibroblasts (HDF)” value in assay [3] is recorded as “proadhesive”. Further, the values for the cytokine synthesis result in assay [4] and in assay [6] were “does not stimulate cytokine synthesis” and “unaffected”, respectively. Moreover, in assay [5], the “adhesion of synovial fibroblasts from RA joints (RAF)” value is reported as “proadhesive”.
